Series [1] has as its system MC-1 equine sarcoid-derived cell line. The series can be described thus: Inhibition of in vitro colony growth of MC-1 equine sarcoid-derived cell line (Example 4). The format is cell-based. The note with it: for inhibition at 18 µM / inhibition at 27 µM / inhibition at 56 µM: Equus caballus, 336 h; for inhibition at 18 µM: 18 MicroMolar; for inhibition at 27 µM: 27 MicroMolar; for inhibition at 56 µM: 56 MicroMolar. The procedure: (§1) Single cell suspensions of tumor cells harvested from culture flasks were exposed to the different compositions of NDGA for one hour at 37° C in liquid medium, and the cells were then washed twice, suspended in agarose medium and plated and the number of colony forming cells were determined. Results are expressed as percent inhibition of survival of clonogenic cells in treated cultures relative to nontreated control cultures. Significant anticancer activity was defined as>70% inhibition of the survival of colony-forming (tumor) cells.
Compositions of NDGA were tested for their ability to inhibit in vitro growth of the MC-1 equine sarcoid-derived cell line, in experiments similar to those of Example 3.

The subject of series [2] is tumor cells. The series can be described thus: Enhancement of X-ray radiation effectiveness by topical application. The note with it: applied topically; without radiation toxicity to surrounding uninvolved skin. The source says:
Consequently, the catecholic butanes may be useful in the treatment of cutaneous afflictions such as Kaposi's sarcoma.

The subject of series [3] is human lung tumor cell line LX-T. The series can be described thus: Antitumor effect against human lung tumor cell line LX-T (clonogenic assay / DNA flow cytometry with DAPI, Example 5). The format is cell-based. The procedure: The antitumor effect of NDGA against the human lung tumor cell line LX-T was determined utilizing a clonogenic assay.
Serial dilutions of the test stock solutions were made in 15 ml of Ca^2+ --and Mg^2+ --free Hank's balanced salt solution (HBSS).
The LX-T cells were incubated in the presence of various amounts of NDGA, and the antitumor effect was determined by measuring the DNA […] of the LX-T nuclei using DNA flow cytometric analysis with a DNA-specific fluorochrome, 4', 6-diamidino-2-phenylindole (DAPI).
Background: A flow cytometer gives signals particle by particle.

Series [4] has as its system MX-1 (human breast adenocarcinoma) cells. The experiment in a line: In vivo antitumor effect on MX-1 cells implanted subcutaneously in nude mice, intratumoral injection (Example 6). The note with it: 0.1 ml injected directly into the tumor. The method, then: The in vivo antitumor effect of NDGA at various survival levels was determined using MX-1 (human breast adenocarcinoma) cells implanted subcutaneously in the flank of nude mice.
Tumors which reached the 25-100 mm^2 range were used for the experiment. 0.1 ml of the test compound in solution was injected directly into the tumor. The tumors were measured periodically to determine their weight until 60 days after the initial treatment or all mice had died.

The subject of series [5] is human breast adenocarcinoma, MX-1. The experiment in a line: Antineoplastic activity by topical application in athymic mice implanted intradermally with human breast adenocarcinoma MX-1 (Examples 7 and 8). The format is in vivo. The conditions noted are these: 4.4 wt/wt% composition (Table 8). The procedure:
A composition containing 17.6% NDGA and 1% BHT in Pego 400 was tested for antineoplastic activity in athymic mice implanted with human breast adenocarcinoma, MX-1. Each animal was innoculated intradermally on the dorsum near the nape of the neck with 0.5 ml of a MX-1 homogenate. The animals were treated by topical application with the NDGA composition after day 23. Compositions containing 4.4 wt/wt% of meso and DL NDGA were tested for efficacy against the MX-1 tumor as in Example 7.

A short description of series [6]: Absorption of harmful sunlight (ultraviolet) radiation (Example 10). The format is physicochemical. The method, then:
The ability of NDGA to absorb harmful sunlight radiation was tested.

Series [7] is described as follows: Stability against oxidation. The conditions noted are these: for example, by air; more stable at lower pH. The format is physicochemical. From the text: The pH of the formulation is important in assuring stability of the catecholic butane as well as assuring that the formulation is physiologically acceptable to the patient. […] Such oxidation can result in discoloration of the formulation rendering it unacceptable for pharmaceutical use. […] Therefore, it is preferred that if the formulation is to be exposed to oxidizing conditions the pH be maintained below about 7.5 and preferably below about 6 in order to provide maximum stability for the catechol against oxidation. However, if oxidizing conditions can be avoided, for example, by storage of the formulation under an inert atmosphere such as nitrogen, a higher pH can be used. The pH of the formulation may be maintained through the use of toxicologically-acceptable buffers. Such buffers are well known in the pharmaceutical formulation art, and include hydrochloric acid buffer, acid phthalate buffer, phosphate buffer and citric acid/sodium citrate buffer.

In series [8] the test system is TPA tumor promotion. The series can be described thus: Antipromoting activity in mice: DMBA+NDGA+TPA (Example 9). The conditions noted are these: NDGA 9 mg topical 30 minutes prior to each TPA application. The format is in vivo, SENCAR mice. The method, then: (§2) Mice were exposed to dimethyl benzanthracene (DMBA), a classical tumor inducer, and to phorbol ester (TPA), a classical tumor promoter, after having been treated with NDGA.
(§3) Twenty mice were included in each of the following groups:
(§4) 1. Positive control group: DMBA+TPA. Female SENCAR mice 6-8 weeks old received a single topical application of […] of DMBA in 0.2 ml of acetone as the initiating agent. After one week, animals received twice weekly applications of tumor promoter TPA in 0.1 ml of acetone. Tumor formation was recorded weekly.
2. Antipromoting activity: DMBA+NDGA+TPA. 30 minutes prior to each application of TPA animals received topical application of NDGA (9 mg.) in 0.2 ml of acetone.

Series [9] has as its system lung squamous cell carcinoma (LX-1). The experiment in a line: Effect against lung squamous cell carcinoma (LX-1). Details: species or system human.
Series [10] has as its system several types of cancer cells. The note with it: Leiter et al.; cited from earlier work.
In series [11] the test system is hepatic and colon carcinoma. The series can be described thus: Treatment of hepatic and colon carcinoma. The source says:
The catecholic butanes, when applied parenterally or by injection, are excreted primarily through the liver and gut, and therefore exert preferential cytotoxicity to tumors located in those organs.

Series [12] concerns melanoma (B-16). The experiment in a line: Effect against melanoma (B-16). Details: species or system mouse.
Series [13] relates to CMT-12 cultured canine breast adenocarcinoma tumor cells. The series can be described thus: Clonogenic assay, antiproliferative effect on CMT-12 canine breast adenocarcinoma cells (Example 3). The format is cell-based. The conditions noted are these: for No. Tumor Colonies Surviving: one hour at 37° C. The procedure:
The antiproliferative effect of NDGA on CMT-12 cultured canine breast adenocarcinoma tumor cells was evaluated in clonogenic (cancer cell) assays.
as §1

Series [14] deals with tumor induction by DMBA. The experiment in a line: Anticarcinogenic activity in mice: NDGA+DMBA+TPA (Example 9). The conditions noted are these: NDGA 3 mg topical, five consecutive days before DMBA and TPA. The format is in vivo, SENCAR mice. The method, then:
as §2, §3, §4
3. Anticarcinogenic activity: NDGA+DMBA+TPA. For five consecutive days animals received topical applications of NDGA (3 mg.) in 0.2 ml of acetone. 24 hours after the last treatment with NDGA, animals received DMBA and TPA exactly as in the positive control group.

The test system of series [15] is human cancer patients. The conditions noted are these: ingested; Smart et al. 1970; cited from earlier work.
Series [16] concerns human breast adenocarcinoma (MX-1). The experiment in a line: Effect against human breast adenocarcinoma (MX-1).
Setting [17] is: Day 14, mean of 3 experiments, read-out: % Inhibition (Mean).
[18] abbreviates: Day 14, read-out: Percentage Inhibition of Colony Growth, Experiment #1.
Where [19] appears, read: Day 14, read-out: Percentage Inhibition of Colony Growth, Experiment #2.
The mark [20] stands for this setting: Day 14, read-out: Percentage Inhibition of Colony Growth, Experiment #3.

Where two headings read alike, the source gives them in different places.

On to `C[C@H](Cc1ccc(O)c(O)c1)[C@@H](C)Cc1ccc(O)c(O)c1` [NDGA, meso-1,4-bis (3,4-dihydroxyphenyl)-2,3-dimethylbutane], for which the inhibition at 18 µM in series [1] (setting [17]) was found to be 32.4%; in series [1] (setting [18]) it was 20.9%; in series [1] (setting [19]), 36.7%; in [1] (setting [20]), 39.5%; in [13] (Canis lupus familiaris, 18 microMolar, survival of clonogenic cells relative to nontreated control), 90.9%. For the same compound, the inhibition at 27 µM is 47% in [1] (setting [17]); 32.8% in [1] (setting [18]); 58.9% in series [1] (setting [19]); 49.3% in [1] (setting [20]); 98.1% in series [13] (Canis lupus familiaris, 27 microMolar, survival of clonogenic cells relative to nontreated control). Besides, the inhibition at 56 µM in series [1] (setting [17]) is 45.3%; in series [1] (setting [18]), 33%; in series [1] (setting [19]) it was 62.2%; in [1] (setting [20]), 40.7%; in series [13] (Canis lupus familiaris, 56 microMolar, survival of clonogenic cells relative to nontreated control) it was 99.8%. Besides, in [1] (especially noticable at 27 and 56 microMolar NDGA), the “inhibiting colony growth over the duration of the assay” value is listed as “uniformly successful in inhibiting colony growth”. In [2], the “enhancement of X-ray radiation effectiveness” value is reported as “enhance the X-ray radiation effectiveness of the tumor cells without radiation toxicity to surrounding uninvolved skin”. The EC50 is 17.6 ± 4.07 µM in series [3] (50% cell growth inhibition, ± SD, read-out: Calculated ED(50)) and 17.6 µM in series [3] (comparison with known anticancer drugs (Table 5B), read-out: ED(50) (the source's name)). The IC75 in series [3] (75% cell growth inhibition, ± SD, read-out: Calculated ED(75)) was 26.6 ± 12.1 µM. Further, the IC90 in [3] (90% cell growth inhibition, ± SD, read-out: Calculated ED(90)) was 41.1 ± 28.1 µM. In series [3] (95% cell growth inhibition, ± SD, read-out: Calculated ED(95)), the IC95 is 55.9 ± 46.8 µM. For the same compound, the “ED(50)” value in [4] is 13.62 Micromoles. Moreover, in [4], the “ED(75)” value came to 25.66 Micromoles. Also, in series [4], the “ED(90)” value came out at 48.33 Micromoles. Also, in series [4], the “ED(95)” value stood at 74.34 Micromoles. For the same compound, the “Tumor Free 60 Days” value in [5] was 4/5. In series [5], the “Tumor Recurrence” value worked out at 0. The absorption of sunlight result in series [6] (result in words) is “strongly absorb sunlight at wavelengths known to produce sunburn”. Besides, the “strong absorption in the ultraviolet region” value in series [6] (solution in methanol) amounted to 2816 Angstroms. Besides, the susceptibility to oxidation result in series [7] is on record as “susceptible to oxidation”. In [8], the “prevention of TPA tumor promotion” value was “nearly completely prevent TPA tumor promotion”. Moreover, the “effectiveness against lung squamous cell carcinoma (LX-1)” value in series [9] is recorded as “particularly effective”. Moreover, the screening result in series [10] is recorded as “negative results”. Besides, the “effectiveness in treating hepatic and colon carcinoma” value in series [11] is “effective in treating hepatic and colon carcinoma”. Besides, in series [12], the “effectiveness against melanoma (B-16)” value is reported as “particularly effective”. For the same compound, the “No. Tumor Colonies Surviving” value in [13] (5 MicroMolar) stood at 229.7 ± 10.9; in series [13] (10 MicroMolar), 173.3 ± 23.3; in series [13] (18 microMolar), 190 ± 16.3; in series [13] (27 microMolar) it was 40 ± 16.3; in series [13] (56 microMolar) it was 3.3 ± 4.7. In [13] (Canis lupus familiaris, 10 MicroMolar, survival of clonogenic cells relative to nontreated control), the inhibition at 10 µM was determined as 82.5%. Further, the “reduction of the potential of tumor induction by DMBA” value in series [14] is “significantly reduce the potential of tumor induction by DMBA”. Moreover, the clinical outcome in series [15] is given as “some positive results”. For the same compound, the “effectiveness against human breast adenocarcinoma (MX-1)” value in series [16] is on record as “particularly effective”.

Take `COc1cccc2c1C(=O)c1c(O)c3c(c(O)c1C2=O)C[C@@](O)(C(=O)CO)C[C@@H]3O[C@H]1C[C@H](N)[C@H](O)[C@H](C)O1` [Adriamycin, reference compound]: the EC50 in [3] (read-out: ED(50)) stood at 25.6 µM.

`CO[C@@]12[C@H](COC(N)=O)C3=C(C(=O)C(C)=C(N)C3=O)N1C[C@@H]1N[C@@H]12` [Mutamycin, reference compound]: in series [3] (read-out: ED(50)), the EC50 was found to be 18.4 µM.

Turning to `O=c1[nH]cc(F)c(=O)[nH]1` [Composition 5-FU, reference compound], the EC50 in series [3] (read-out: ED(50)) came to 102 µM.

`C[C@H](Cc1ccc(O)c(O)c1)[C@H](C)Cc1ccc(O)c(O)c1` (relative stereo) [dl-NDGA]: in [5], the “Tumor Free 60 Days” value was 4/5 and the “Tumor Recurrence” value stood at 0.

As a reminder, the inhibition is how much of the control response was suppressed.

The values above are taken from US5008294A, “Methods of treating tumors with compositions of catecholic butanes” (priority 1987, dated 1991).
